Each block holds one compound with its values, some of them ahead of it.
Assays:
cell membranes = test system: cell membranes; set-up: method as in PMID 10839220; details: cited from earlier work
HT-29 cell line = experiment: SRB assay, antiproliferative activity against HT-29; type: cell-based, human; details: Homo sapiens; 2 h incubation, SRB assay, HT-29
Procedure: (§1) The human adenocarcinoma cell line, HT-29 (ATCC HTB-38), was cultured in αMEM medium (IITD PAN) supplemented with 10% fetal bovine serum, FBS (Sigma-Aldrich, Taufkirchen, Germany), 100 U/mL penicillin, 100 µg/mL streptomycin antibiotic solution (Sigma-Aldrich, Taufkirchen, Germany), and 2 mM glutamine solution (Sigma-Aldrich, Taufkirchen, Germany). Cells from less than 20 passages were used for the study. In turn, preadipocytes from mouse embryos with the morphology of fibroblast cells, line 3T3-L1 (ATCC CL-173), were cultured in DMEM high-glucose medium (Life Technologies Corporation, Carlsbad, CA, USA) with the same supplements as above. Cells from less than 14 passages were used for the study. Both tested cell lines were grown at 37 °C in 5% CO2.
(§2) The effect of O-alkyl derivatives of naringenin and their oximes on eukaryotic cells was checked using a slightly modified SRB test described earlier. Firstly, HT-29 (1 × 10^5 cells/mL) and 3T3-L1 (5 × 10^4 cells/mL) cell lines were incubated in adherent microtiter plates under the conditions described above. The cells were then treated for 2 h with the tested compounds 1a–10a and 1b–10b at concentrations of 1, 5, 10, 25, 50, 75, and 100 µg/mL each. After this time, the medium was removed and replaced with one containing 50% (wt/vol) trichloroacetic acid (TCA; Sigma-Aldrich, Taufkirchen, Germany). Following 1 h of incubation at 4 °C, the plate was rinsed with water, and then an acidic solution of 0.4% sulforhodamine B (SRB) (Sigma-Aldrich, Taufkirchen, Germany), was added to the dried wells and incubated in the dark for half an hour. At the end of this time, the SRB solution was replaced by 1% (vol/vol) acetic acid, and the stained protein precipitate was dissolved in 10 mM Tris base solution (pH 10.5). Absorbance was measured at 560 nm in a plate reader (GloMax Discover Microplate Reader, Promega).
(§3) The cytotoxic effect of O-alkyl derivatives of naringenin and their oximes on eukaryotic cells was expressed as the concentration of the tested compounds at which 50% growth inhibition of the tested cell lines was observed. Values were presented in the form of the survival index (SI)–IC50. All determinations were repeated in three independent experiments, each performed in three technical replicates. Moreover, the effect of DMSO (Sigma-Aldrich, Taufkirchen, Germany), the solvent present in all the initial solutions of the tested compounds, on the growth of the cell lines used in the study was also verified.

3T3-L1 cell line = experiment: SRB assay, antiproliferative activity against 3T3-L1; type: cell-based, mouse; details: Mus musculus; 2 h incubation, SRB assay, 3T3-L1
Procedure: as §1, §2, §3

[1] = test system: Escherichia coli K12 (ATCC 10798); experiment: Adhesion assay, static conditions: E. coli to 3T3-L1 cell line; type: cell-based
Procedure: The study used two reference strains, Escherichia coli K12 (ATCC 10798) and Enterococcus faecalis (ATCC 29212), obtained from the American Type Culture Collection. Both strains were stored in trypticase soy broth (TSB; OXOID, Basingstoke, UK) with the addition of 30% glycerol at −70 °C in the museum resources of the Department of Microbiology at the Wroclaw Medical University.
For studies determining the interaction of bacteria with eukaryotic cells, suspensions of the tested strains were prepared in Luria broth (LB, Becton, Dickinson and Company, USA) medium with a bacterial density of 6 × 10^8 CFU/mL.
The adhesion ability of the tested bacterial strains to HT-29 and 3T3-L1 cell lines was determined by an in vitro adhesion assay as described previously. Eukaryotic cells were infected with prokaryotic cells in the presence of the examined compounds in pre-selected concentrations at an MOI (multiplicity of infection) ratio of 50. Cells were exposed to the tested strains and compounds for 2 h. After this time, unbound bacteria were removed by washing with PBS (Life Technologies Corporation, Carlsbad, CA, USA). The lysates acquired by cell lysis (0.5% Triton X-100 in LB): 90 min, 37 °C, 5% CO2 atmosphere, were then seeded onto TSA and MC media for E. faecalis and E. coli, respectively. The assays were performed in at least three independent experiments (cells from subsequent passages), each in triplicate. A control without tested compounds was set for each strain.

[2] = test system: Enterococcus faecalis (ATCC 29212); experiment: Bioflux microfluidic adhesion: E. faecalis to HT-29 cell line; type: cell-based; details: 50 µg/mL, control 1.55 ± 0.15
Procedure: (§4) Determination of the impact of a dynamic medium flow on the adhesive capacity of bacteria was performed using the Bioflux 1000Z (Fluxion, San Francisco, CA, USA) with a coupled microscope environmental chamber (Pecton Incubator XL S1, Carl Zeiss, Jena, Germany), enabling the maintenance of 37 °C and microaerophilic conditions. At the very beginning, all channels of dedicated microfluidic plates (Fluxion, San Francisco, CA, USA) were flushed with 100 µL of αMEM or DMEM high-glucose medium with supplements (further named “cell line medium”; for details of the supplementation see “Cell culture procedure”) applying an intensive flow of 10 dyne/cm^2 for 10 s. After unblocking the lumen of the channels, the inlet and outlet wells were emptied, and 20 µL of 100 µg/mL fibronectin solution (Sigma-Aldrich, Taufkirchen, Germany) was added to each inlet channel. The medium was turned in the outlet direction at a flow rate of 1 dyne/cm^2 for 1 min. After this step, the plate was left for a 1 h incubation period to allow fibronectin to be absorbed on the surface of the microcapillaries. […] After completing this stage, photographs of the microcapillaries containing the tested biological materials were taken using an inverted fluorescence microscope (GabH, Jena, Germany) and the Bioflux Montage software (Fluxion, San Francisco, CA, USA). […]

[3] = test system: Escherichia coli K12 (ATCC 10798); experiment: Bioflux microfluidic adhesion: E. coli to HT-29 cell line; type: cell-based; details: 50 µg/mL, control 0.65 ± 0.07
Procedure: as §4

[4] = test system: Enterococcus faecalis (ATCC 29212); experiment: Bioflux microfluidic adhesion: E. faecalis to 3T3-L1 cell line; type: cell-based; details: 50 µg/mL, control 0.29 ± 0.11
Procedure: as §4

[5] = test system: Escherichia coli K12 (ATCC 10798); experiment: Bioflux microfluidic adhesion: E. coli to 3T3-L1 cell line; type: cell-based; details: 50 µg/mL, control 0.37 ± 0.13
Procedure: as §4

IC50 (HT-29 cell line): > 100 µg/mL
SMILES: O=C1C[C@@H](c2ccc(O)cc2)Oc2cc(O)cc(O)c21 [NG, naringenin]
concentration at which the membrane-solidifying effect is revealed (cell membranes): ≥ 2.5 µg/mL
IC50 (3T3-L1 cell line): > 100 µg/mL

SMILES: CCCCCCCCCOc1ccc([C@@H]2CC(=NO)c3c(O)cc(OCCCCCCCCC)cc3O2)cc1 [Compound 8b, 7,4’-di-O-nonylnaringenin oxime]
effect on adhesion of E. coli to 3T3-L1 (in words) [1]: strongly enhance
BB/EC ratio [2]: 1.36 ± 0.08
BB/EC ratio [3]: 1.03 ± 0.06
BB/EC ratio [4]: 0.28 ± 0.15
BB/EC ratio (area of bacterial biomass adhered to the surface of the eukaryotic cells) [5]: 0.6 ± 0.12
IC50 (HT-29 cell line): > 100 µg/mL
IC50 (3T3-L1 cell line): > 100 µg/mL
